From ChEMBL document CHEMBL1135286, “Synthesis and in vitro evaluation of a novel iodinated resiniferatoxin derivative that is an agonist at the human vanilloid VR1 receptor” (Bioorg Med Chem Lett, 2002) come the findings set out here.

For test [1], the target named is T1, Transient receptor potential cation channel subfamily V member 1 (Homo sapiens, UniProt Q8NER1). Put plainly: Inhibition of [3H]RTX binding to human Vanilloid receptor subtype 1 expressed in HEK293 cells. The class given is cell-based.
Test [2] addresses T1, Transient receptor potential cation channel subfamily V member 1. The experiment in a line: Induced [Ca2+] influx in Vanilloid receptor subtype 1 expressing HEK 293 cells. It counts as functional, cell-based, HEK293.
The target is the same in test [3]. Put plainly: Percent induction of [Ca2+] influx compared to subsequent 80% maximal capsaicin response in human vanilloid receptor 1 expressing HEK293 cells. It counts as functional, cell-based.
For test [4], the target named is Transient receptor potential cation channel subfamily V member 1 (Rattus norvegicus) (UniProt O35433). Put plainly: Percent induction of [Ca2+] influx compared to subsequent 80% maximal capsaicin response in rat Vanilloid receptor 1 expressing HEK293 cells. It counts as functional, cell-based.

The structures appear in SMILES notation.

T1 sequence (Q8NER1 whole entry): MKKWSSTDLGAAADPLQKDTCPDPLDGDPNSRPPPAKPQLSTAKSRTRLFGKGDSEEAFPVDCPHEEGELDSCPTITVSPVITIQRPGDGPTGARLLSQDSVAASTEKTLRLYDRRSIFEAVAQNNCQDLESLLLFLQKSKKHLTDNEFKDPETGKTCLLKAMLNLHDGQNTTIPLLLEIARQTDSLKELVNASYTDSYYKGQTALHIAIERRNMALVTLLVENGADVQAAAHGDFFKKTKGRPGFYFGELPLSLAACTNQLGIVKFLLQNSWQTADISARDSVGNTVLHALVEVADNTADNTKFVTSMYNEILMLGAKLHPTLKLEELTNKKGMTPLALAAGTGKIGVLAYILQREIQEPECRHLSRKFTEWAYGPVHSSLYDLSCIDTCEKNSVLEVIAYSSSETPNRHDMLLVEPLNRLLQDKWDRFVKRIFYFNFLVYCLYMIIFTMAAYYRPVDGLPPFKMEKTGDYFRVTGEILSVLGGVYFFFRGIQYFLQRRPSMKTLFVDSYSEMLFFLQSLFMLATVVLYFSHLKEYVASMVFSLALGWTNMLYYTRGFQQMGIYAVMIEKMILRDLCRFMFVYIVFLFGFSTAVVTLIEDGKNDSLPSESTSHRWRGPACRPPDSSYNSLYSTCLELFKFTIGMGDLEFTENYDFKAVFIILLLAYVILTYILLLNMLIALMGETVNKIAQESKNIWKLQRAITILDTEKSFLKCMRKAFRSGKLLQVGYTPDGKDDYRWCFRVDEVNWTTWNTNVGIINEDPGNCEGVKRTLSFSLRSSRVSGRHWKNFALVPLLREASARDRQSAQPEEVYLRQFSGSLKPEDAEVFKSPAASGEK
Sequence of Transient receptor potential cation channel subfamily V member 1 (Rattus norvegicus) (O35433 whole entry): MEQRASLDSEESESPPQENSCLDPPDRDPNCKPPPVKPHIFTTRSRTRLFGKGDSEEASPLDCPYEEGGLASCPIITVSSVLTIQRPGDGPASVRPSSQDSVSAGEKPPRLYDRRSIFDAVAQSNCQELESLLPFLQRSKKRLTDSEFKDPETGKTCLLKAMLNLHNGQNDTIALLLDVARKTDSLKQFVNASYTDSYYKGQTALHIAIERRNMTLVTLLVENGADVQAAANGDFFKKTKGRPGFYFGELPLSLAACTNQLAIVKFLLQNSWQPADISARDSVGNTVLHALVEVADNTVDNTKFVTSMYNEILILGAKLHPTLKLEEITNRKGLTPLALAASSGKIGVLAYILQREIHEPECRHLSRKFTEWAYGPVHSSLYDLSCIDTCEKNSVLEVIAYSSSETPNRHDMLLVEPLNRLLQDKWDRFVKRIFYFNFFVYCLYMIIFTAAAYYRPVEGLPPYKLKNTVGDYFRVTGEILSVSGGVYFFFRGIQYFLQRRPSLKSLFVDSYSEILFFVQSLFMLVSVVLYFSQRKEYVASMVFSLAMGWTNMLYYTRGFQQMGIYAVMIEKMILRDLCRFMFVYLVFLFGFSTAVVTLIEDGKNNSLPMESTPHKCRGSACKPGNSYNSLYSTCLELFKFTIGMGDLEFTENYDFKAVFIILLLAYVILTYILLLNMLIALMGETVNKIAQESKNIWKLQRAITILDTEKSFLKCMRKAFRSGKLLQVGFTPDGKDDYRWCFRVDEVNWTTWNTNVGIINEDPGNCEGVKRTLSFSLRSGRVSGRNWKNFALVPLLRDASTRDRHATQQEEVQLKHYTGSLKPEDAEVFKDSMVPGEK

Turning to `C=C(C)[C@]12C[C@@H](C)[C@@]34O[C@](Cc5ccccc5)(O[C@@H]1[C@@H]3C=C(COC(=O)Cc1cc(OC)c(OC(C)=O)cc1I)C[C@]1(O)C(=O)C(C)=C[C@@H]41)O2`, the affinity in test [1] corresponds to a Ki of 1.46 nM. In addition, the concentration for a half-maximal effect (EC50) – broadly, the concentration needed to bring the measured effect to its halfway point – in test [2] was found to be 935 nM. In test [3], this compound showed an Efficacy of 75%.

Turning to `C=C(C)[C@]12C[C@@H](C)[C@@]34O[C@](Cc5ccccc5)(O[C@@H]1[C@@H]3C=C(COC(=O)Cc1cc(OC)c(O)cc1I)C[C@]1(O)C(=O)C(C)=C[C@@H]41)O2`, in test [1], the affinity corresponds to a Ki of 0.71 nM. In test [2], this compound gave an EC50 of 130 nM. In addition, the Efficacy in test [3] was 50%; in test [4], 92%.

For the compound `C=C(C)[C@]12C[C@@H](C)[C@@]34OC(Cc5ccccc5)(O[C@@H]1[C@@H]3C=C(COC(=O)Cc1ccc(O)c(OC)c1I)C[C@]1(O)C(=O)C(C)=C[C@@H]41)O2`, the Ki – broadly, the dissociation constant of the complex between target and ligand, obtained from inhibition or displacement – in test [1] was determined as 1.4 nM. For the same compound, the IC50 (usually the concentration that gives 50% inhibition) in test [2] came out at 27 nM.

In test [1], `C=C(C)[C@]12C[C@@H](C)[C@@]34O[C@](Cc5ccccc5)(O[C@@H]1[C@@H]3C=C(COC(=O)Cc1ccc(O)c(OC)c1)C[C@]1(O)C(=O)C(C)=CC41)O2` (single isomer, unassigned) [RESINIFERATOXIN] had a Ki of 0.48 nM. For the same compound, the midpoint of the response in test [2], the EC50, lay at 1.9 nM. This compound also came in with an Efficacy in test [3] of 116%.
